Results taken from patent EP4678638A1, “NEW E3 UBIQUITIN LIGASE LIGAND, PROTEIN DEGRADATION AGENT AND USE THEREOF” (priority 2023, dated 2024).
pIC50: −log10 of the molar value. Read-outs that look alike come from different tables or passages of the source.

Assays:
SW620 = assay: CCK-8 proliferation, SW620; type: cell-based; conditions: Homo sapiens, SW-620; CCK-8; 96 hours; read-out: Inhibitory activity (IC50) on tumor cell proliferation, SW620
Procedure, shortened: (§1)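 Cells seeded, then after 24 h treated with 10 concentrations (top 10 µM, 5-fold serial dilution) for a line-specific time at 37°C, 5% CO2. Viability read by CCK-8; IC50 fitted from growth-inhibition curves.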

LNcap = assay: CCK-8 proliferation, LNcap; type: cell-based; conditions: Homo sapiens; for IC50: Table B10, compounds designed based on the IRAK4 inhibitors, Lncap cells, read-out: Inhibitory activity (IC50, nM) on tumor cell proliferation, Lncap
Method: (§2) The tumor cells used herein were cultured in a cell culture medium listed in table A1 at 37°C in an incubator with 5% CO2. Prior to experimentation, all cell lines used were correctly identified by STR profiling, and tested negative for mycoplasma contamination using a mycoplasma detection kit through routine screenings. Table A1. Tumor cells and cell culture medium used in the present disclosure
(§3) IC50 values of the compounds of the present disclosure (including the compounds in Table 1, and compounds of examples) were measured using the Meilun Cell Counting Kit-8 kit from Dalian Meilun Biotech Co., Ltd. Assay details are as follows: tumor cells were seeded in a 96-well plate at a density listed in Table A2. After 24h, 100 µL of the inoculated cells were treated with 0.5µL of the compounds of the present disclosure (including the compounds in Tables 1 and 2, and compounds of examples) at 10 different successively decreasing concentrations (starting at the highest concentration of 10µM; 5-fold serial dilutions). After the cells were treated with the compounds of the present disclosure for a period of time, the cell viability detection reagent was added to the culture medium for cell viability assessment according to the instructions provided with the CCK-8 kit. […] The growth inhibition of the compounds of the present disclosure on cells was plotted by Prism Graphpad software, and the IC50 values of the compounds of the present disclosure were calculated therefrom. […] Seeding protocol and treatment time for tumor cells

SR = assay: CCK-8 proliferation, SR; type: cell-based, Human; conditions: Homo sapiens; for IC50: Table B10, compounds designed based on the IRAK4 inhibitors, SR cells, read-out: Inhibitory activity (IC50, nM) on tumor cell proliferation, SR; for pIC50: SR, CCK-8, 72 hours, read-out: Inhibitory activity (IC50) on tumor cell proliferation, SR
Procedure, shortened: as §1

MV-4-11 = assay: CCK-8 proliferation, MV-4-11; type: cell-based, Human; conditions: Homo sapiens, MV4-11; for IC50: Table B10, compounds designed based on the IRAK4 inhibitors, MV-4-11 cells, read-out: Inhibitory activity (IC50, nM) on tumor cell proliferation, MV-4-11; for pIC50: CCK-8, 72 or 96 hours, read-out: Inhibitory activity (IC50) on tumor cell proliferation, MV-4-11
Procedure, shortened: as §1

Jurkat = assay: CCK-8 proliferation, Jurkat; type: cell-based, Human; conditions: Homo sapiens; Table B10, compounds designed based on the IRAK4 inhibitors; Jurkat cells; read-out: Inhibitory activity (IC50, nM) on tumor cell proliferation, Jurkat
Procedure, shortened: as §1

CCRF-CEM = assay: CCK-8 proliferation, CCRF-CEM; type: cell-based, Human; conditions: Homo sapiens; for IC50: Table B10, compounds designed based on the IRAK4 inhibitors, CCRF-CEM cells, read-out: Inhibitory activity (IC50, nM) on tumor cell proliferation, CCRF-CEM; for pIC50: CCRF-CEM, CCK-8, 96 hours, read-out: Inhibitory activity (IC50) on tumor cell proliferation, CCRF-CEM
Procedure, shortened: as §1

IRAK4 = target: T1, IRAK4 (Homo sapiens, UniProt Q9NWZ3); assay: Western blot degradation of IRAK4 (hPBMC); type: cell-based; conditions: Table D1
T1 construct: evaluate the effects of the compounds of the present disclosure on the expression of target proteins in cells; endogenous in cells; host or cells: hPBMC
T1 sequence (Q9NWZ3 1-460): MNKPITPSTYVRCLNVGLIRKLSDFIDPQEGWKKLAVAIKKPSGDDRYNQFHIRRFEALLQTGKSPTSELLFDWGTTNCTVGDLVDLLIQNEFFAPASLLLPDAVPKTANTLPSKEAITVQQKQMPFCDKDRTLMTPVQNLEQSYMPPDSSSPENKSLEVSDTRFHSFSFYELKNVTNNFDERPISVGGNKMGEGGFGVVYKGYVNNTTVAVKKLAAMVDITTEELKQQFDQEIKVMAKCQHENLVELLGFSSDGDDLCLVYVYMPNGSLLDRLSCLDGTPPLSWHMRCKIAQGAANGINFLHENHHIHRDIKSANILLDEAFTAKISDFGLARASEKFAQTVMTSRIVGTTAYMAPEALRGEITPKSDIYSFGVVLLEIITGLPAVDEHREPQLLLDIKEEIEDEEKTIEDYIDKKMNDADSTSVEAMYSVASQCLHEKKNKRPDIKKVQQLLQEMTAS
Procedure, shortened: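 Quantification by ImageJ densitometry of Western blot bands: DC50 is the fitted concentration halving band intensity relative to DMSO. Percent remaining uses internal-control normalization, and degradation rate is its complement.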

MM.1S = assay: CCK-8 proliferation, MM.1S; type: cell-based; conditions: Homo sapiens, MM1.S; for IC50: Table B10, compounds designed based on the IRAK4 inhibitors, MM.1S cells, read-out: Inhibitory activity (IC50, nM) on tumor cell proliferation, MM.1S; for pIC50: CCK-8, 72 hours, read-out: Inhibitory activity (IC50) on tumor cell proliferation, MM1S
Procedure, shortened: as §1

H1299 = assay: CCK-8 proliferation, H1299; parameters: species or system Human; conditions: Homo sapiens, NCI-H1299; Table B10, compounds designed based on the IRAK4 inhibitors; H1299 cells; read-out: Inhibitory activity (IC50, nM) on tumor cell proliferation, H1299
Method: as §2, §3

DU-145 = assay: CCK-8 proliferation, DU-145; type: cell-based; conditions: Homo sapiens, 96 hours, read-out: Inhibitory activity (IC50) on tumor cell proliferation, DU-145
Method: as §2, §3

MM.1R = assay: CCK-8 proliferation, MM.1R; type: cell-based; conditions: CCK-8, 72 hours, read-out: Inhibitory activity (IC50) on tumor cell proliferation, MM.1R
Method: as §2, §3

H1975 = assay: CCK-8 proliferation, NCI-H1975 (H1975); type: cell-based, Human; conditions: Homo sapiens, NCI-H1975; CCK-8; 96 hours; read-out: Inhibitory activity (IC50) on tumor cell proliferation, H1975
Procedure, shortened: as §1

Kasumi-1 = assay: CCK-8 proliferation, Kasumi-1; type: cell-based, Human; conditions: Homo sapiens, Kasumi 1, 72 hours, read-out: Inhibitory activity (IC50) on tumor cell proliferation, Kasumi-1
Procedure, shortened: as §1

22RV1 = assay: CCK-8 proliferation, 22RV1; type: cell-based; conditions: Homo sapiens, 96 hours, read-out: Inhibitory activity (IC50) on tumor cell proliferation, 22RV1
Method: as §2, §3

MCF7 = assay: CCK-8 proliferation, MCF7 (MCF-7); type: cell-based; conditions: Homo sapiens, MCF7; CCK-8; read-out: Inhibitory activity (IC50) on tumor cell proliferation, MCF7
Procedure, shortened: as §1

SMILES: CN(Cc1ccc(C2CCC(=O)NC2=O)c(F)c1)C1CCN(c2ncc(C(=O)Nc3ccc(OC(F)(F)Cl)cc3)cc2-c2cc[nH]n2)CC1 (stereo not drawn) [GT-04027, N-(4-(chlorodifluoromethoxy)phenyl)-6-(4-((4-(2,6-dioxopiperidin-3-yl)-3-fluorobenzyl)(methyl)amino)piperidin-1-yl)-5-(1H-pyrazol-3-yl)nicotinamide]
- pIC50 (SW620): 6.30 to 7.00
- pIC50 (LNcap; LNCaP, CCK-8, 96 hours, read-out: Inhibitory activity (IC50) on tumor cell proliferation, Lncap): 6.30 to 7.00

SMILES: CC(C)Nc1cc(-n2ccc3cc(C#N)cnc32)ncc1C(=O)NC1CCN(Cc2ccc(C3CCC(=O)NC3=O)cc2)CC1 (stereo not drawn) [GT-04042, 6-(5-cyano-1H-pyrrolo[2,3-b]pyridin-1-yl)-N-(1-(4-(2,6-dioxopiperidin-3-yl)benzyl)piperidin-4-yl)-4-(isopropylamino)nicotinamide]
- IC50 (SR): 500 to 1000 nM
- IC50 (MV-4-11): 500 to 1000 nM
- IC50 (LNcap): 500 to 1000 nM
- IC50 (Jurkat): 500 to 1000 nM
- IC50 (CCRF-CEM): 500 to 1000 nM

SMILES: CC(C)Nc1cc(-n2ccc3cc(C#N)cnc32)ncc1C(=O)NC1CCN(Cc2ccc(C3CCC(=O)NC3=O)c(F)c2)CC1 (stereo not drawn) [GT-04043, 6-(5-cyano-1H-pyrrolo[2,3-b]pyridin-1-yl)-N-(1-(4-(2,6-dioxopiperidin-3-yl)-3-fluorobenzyl)piperidin-4-yl)-4-(isopropylamino)nicotinamide]
- IC50 (SR): 500 to 1000 nM
- IC50 (MV-4-11): 500 to 1000 nM
- IC50 (LNcap): 500 to 1000 nM
- IC50 (Jurkat): 100 to 500 nM
- IC50 (CCRF-CEM): 500 to 1000 nM

SMILES: O=C1CCC(c2ccc(CN3CCC(n4cc(NC(=O)c5coc(-c6ccnc(NCC7CC7)c6)n5)c(C(F)F)n4)CC3)cc2)C(=O)N1 (stereo not drawn) [GT-04175, 2-(2-((cyclopropylmethyl)amino)pyridin-4-yl)-N-(3-(difluoromethyl)-1-(1-(4-(2,6-dioxopiperidin-3-yl)benzyl)piperidin-4-yl)-1H-pyrazol-4-yl)oxazole-4-carboxamide]
- Degradation of substrate protein IRAK4 (substrate protein remaining %) (IRAK4): A (A is defined as 0% ≤ substrate protein remaining % ≤ 80%)
- IC50 (MV-4-11): 500 to 1000 nM
- IC50 (LNcap): 100 to 500 nM
- IC50 (Jurkat): 100 to 500 nM
- IC50 (CCRF-CEM): 500 to 1000 nM

SMILES: O=C1CCC(c2ccc(CN3CCN(c4ccc(-n5cc(NC(=O)c6coc(-c7ccnc(NCC(F)(F)F)c7)n6)c(C(F)F)n5)cc4)CC3)cc2F)C(=O)N1 (stereo not drawn) [GT-04274, N-(3-(difluoromethyl)-1-(4-(4-(4-(2,6-dioxopiperidin-3-yl)-3-fluorobenzyl)piperazin-1-yl)phenyl)-1H-pyrazol-4-yl)-2-(2-((2,2,2-trifluoroethyl)amino)pyridin-4-yl)oxazole-4-carboxamide]
- Degradation of substrate protein IRAK4 (substrate protein remaining %) (IRAK4): A (A is defined as 0% ≤ substrate protein remaining % ≤ 80%)
- IC50 (MM.1S): 100 to 500 nM
- IC50 (LNcap): 100 to 500 nM
- IC50 (Jurkat): 500 to 1000 nM
- IC50 (CCRF-CEM): 500 to 1000 nM

SMILES: O=C1CCN(c2ccc(CN3CCC(n4cc(NC(=O)c5coc(-c6ccnc(NCC7CC7)c6)n5)c(C(F)F)n4)CC3)cn2)C(=O)N1 [GT-04959, 2-(2-((cyclopropylmethyl)amino)pyridin-4-yl)-N-(3-(difluoromethyl)-1-(1-((6-(2,4-dioxotetrahydropyrimidin-1(2H)-yl)pyridin-3-yl)methyl)piperidin-4-yl)-1H-pyrazol-4-yl)oxazole-4-carboxamide]
- IC50 (H1299): 500 to 1000 nM
- IC50 (MM.1S): 500 to 1000 nM

SMILES: O=C1CCN(c2ccc(COc3ccc(Cl)cc3-c3nc4cc(C(F)(F)F)cc(Cl)c4[nH]3)cc2)C(=O)N1 [GT-06479, 1-(4-((4-chloro-2-(7-chloro-5-(trifluoromethyl)-1H-benzo[d]imidazol-2-yl)phenoxy)methyl)phenyl)dihydropyrimidine-2,4(1H,3H)-dione]
- pIC50 (DU-145): 6.30 to 7.00

SMILES: O=C1CCN(c2cccc(COc3ccc(Cl)cc3-c3nc4cc(C(F)(F)F)cc(Cl)c4[nH]3)c2)C(=O)N1 [GT-06480, 1-(3-((4-chloro-2-(7-chloro-5-(trifluoromethyl)-1H-benzo[d]imidazol-2-yl)phenoxy)methyl)phenyl)dihydropyrimidine-2,4(1H,3H)-dione]
- pIC50 (DU-145): 6.30 to 7.00

SMILES: O=C1CCN(c2ccc(COc3ccc(Cl)cc3-c3nc4cc(C(F)(F)F)cc(Cl)c4[nH]3)cn2)C(=O)N1 [GT-06481, 1-(5-((4-chloro-2-(7-chloro-5-(trifluoromethyl)-1H-benzo[d]imidazol-2-yl)phenoxy)methyl)pyridin-2-yl)dihydropyrimidine-2,4(1H,3H)-dione]
- pIC50 (DU-145): 7.00 to 7.30

SMILES: CC(=O)c1c(C)c2cnc(Nc3ccc(N4CCNCC4)cn3)nc2n(C2CCCC2)c1=O [Palbociclib, reference compound]
- pIC50 (MM.1R): < 5.00
- pIC50 (SR): 5.30 to 6.00
- pIC50 (H1975): 5.00 to 5.30
- pIC50 (Kasumi-1): 5.30 to 6.00
- pIC50 (MM.1S): < 5.00
- pIC50 (MV-4-11): 6.30 to 7.00
- pIC50 (22RV1): 6.30 to 7.00
- pIC50 (MCF7): 5.30 to 6.00
- pIC50 (CCRF-CEM): 5.30 to 6.00

SMILES: CN(C)C(=O)c1cc2cnc(Nc3ccc(N4CCNCC4)cn3)nc2n1C1CCCC1 [Ribociclib, reference compound]
- pIC50 (MM.1R): < 5.00
- pIC50 (SR): 5.00 to 5.30
- pIC50 (H1975): < 5.00
- pIC50 (Kasumi-1): 5.30 to 6.00
- pIC50 (MM.1S): 5.00 to 5.30
- pIC50 (MV-4-11): 5.00 to 5.30
- pIC50 (22RV1): 5.30 to 6.00
- pIC50 (MCF7): 5.00 to 5.30
- pIC50 (CCRF-CEM): < 5.00
